Consider 3 molecules from US10525060B2, “HCK as a therapeutic target in MYD88 mutated diseases” (Dana-Farber Cancer Institute, Inc., priority 2016, dated 2020).

One test concerns FYN, SRC, YES. Kind of test: KiNativ profiling in WM cell lines. The conditions noted are these: 1 μM. It is filed as binding, Homo sapiens.
For test [1], the system named is mutated MYD88 expressing WM and ABC DLBCL cell lines. Briefly: CellTiter-Glo Luminescent cell viability assay. Format: cell-based. How it is done:
Apoptosis analysis was performed using Annexin V/Propidium iodide staining with the Apoptosis Detection Kit I (BD Pharmingen, San Jose Calif.). Cells (1×10^6/well) were treated in 24 well plates for 18 hours with inhibitors or corresponding controls. A minimum of 10,000 events were acquired using a BD™ FACSCanto II flow cytometer, and analyzed with BD FACS DIVA Software. For WM patient cells, BMMC (2×10^6/well) were treated with inhibitors, and CD19-APC-cy7 antibody (BD Pharmingen) was used with Annexin V antibody to analyze WM cell apoptosis. AlamarBlue® cell viability assay (Life Technologies, Carlsbad Calif.) was used to assess cell death following inducible HCK knockdown. For these experiments, transduced cells (1×10^5/ml) were cultured with tetracycline, and aliquoted every other day on days 1-11. […] Aliquoted plates were read in a SpectraMax M3 plate reader (Molecular Devices, Sunnyvale, Calif.). Relative cell survival was calculated as percentage of fluorescence relative to scrambled control. […] Luminescent measurement was performed using the 2104 Envision® Multilabel Reader (PerkinElmer Inc.).
(§1) We also evaluated tumor cell viability by the CellTiter-Glo® Luminescent cell viability assay, and apoptosis by propidium iodide and Annexin V staining to determine if HCK inhibition contributed to WM cell death.
On the technique in general: In ATP-based viability assays light output follows the ATP content of the culture.

In test [2] the target is T1, HCK (Homo sapiens, UniProt P08631). Briefly: Kinase active-site inhibition assay (ATP-biotin probe, western blot) in BCWM.1 cells. The conditions noted are these: BCWM.1 WM cells, pre-treated 1 hour, various concentrations. It is filed as binding. Also on record: endogenous in cells; host or cells: BCWM.1 (A3); BCWM.1, MWCL-1, TMD-8 (A8); WM and ABC DLBCL lines and primary WM cells (A12). How it is done: (§2) Cells then washed with PBS twice, and lysed with co-IP buffer (Invitrogen, Grand Island N.Y.). Two mg of protein from lysed cells was then incubated with […] of Pierce Streptavidin Magnetic Beads (Thermo Fisher Scientific, Cambridge Mass.) at 4° C. for 1 hour, then washed with TBST (0.1% Tween-20) thrice, and proteins eluted with SDS-PAGE sample buffer. […] Cells then were lysed and kinases were pulled down with ATP-biotin using Pierce™ Kinase Enrichment Kit (Thermo Fisher Scientific) per manufacturer's instructions. Kinases were eluted with SDS-PAGE sample buffer and detected by western blot.

The target in test [3] is T2, LYN (Homo sapiens, UniProt P07948). The description is as above. It is filed as binding. Also on record: endogenous in cells; host or cells: BCWM.1. Conditions: BCWM.1 WM cells, pre-treated 1 hour, various concentrations. On the procedure:
as §2

The test system of a further test is CD5+CD19+ PBMC cells. Kind of test: Apoptosis ex vivo in cells from a CLL patient resistant to ibrutinib. It is filed as cell-based, human. The conditions noted are these: DMSO 11.9%.
In a further test the target is T3, HCK (pTyr^411) (Homo sapiens, UniProt P08631).
T3 construct: endogenous in cells; host or cells: BCWM.1 (A3); BCWM.1, MWCL-1, TMD-8 (A8); WM and ABC DLBCL lines and primary WM cells (A12)
Briefly: PhosFlow analysis of HCK Tyr411 phosphorylation. It is filed as cell-based. The conditions noted are these: MYD88 L265P WM and ABC DLBCL cell lines and primary WM LPC, 0.5 μM, 30 minutes. On the procedure: PhosFlow analysis was performed to delineate HCK phosphorylation. Cells were fixed with BD PhosFlow Fix Buffer I at 37° C. for 10 min. Cells were then centrifuged (300×g for 5 min) and washed twice with PhosFlow Perm/Wash Buffer I (BD Pharmingen). […] Following staining, cells were incubated in the dark for 30 min at room temperature, then washed thrice with BD PhosFlow Perm/Wash Buffer I, followed by anti-Rabbit IgG DyLight®-649 secondary antibody (Abcam), and incubated for an additional 20 min. Cells were then washed twice with BD PhosFlow Perm/Wash Buffer I and flow analysis performed using a BD™ FACSCanto II Flow Cytometer.
as §1

For a further test, the system named is CD19+ bone marrow cells. Briefly: Apoptosis by flow cytometry in cells from a WM patient resistant to ibrutinib. It is filed as cell-based, human. On the procedure: Apoptosis analysis was performed using Annexin V/Propidium iodide staining with the Apoptosis Detection Kit I (BD Pharmingen, San Jose Calif.). Cells (1×10^6/well) were treated in 24 well plates for 18 hours with inhibitors or corresponding controls. A minimum of 10,000 events were acquired using a BD™ FACSCanto II flow cytometer, and analyzed with BD FACS DIVA Software. For WM patient cells, BMMC (2×10^6/well) were treated with inhibitors, and CD19-APC-cy7 antibody (BD Pharmingen) was used with Annexin V antibody to analyze WM cell apoptosis. AlamarBlue® cell viability assay (Life Technologies, Carlsbad Calif.) was used to assess cell death following inducible HCK knockdown. For these experiments, transduced cells (1×10^5/ml) were cultured with tetracycline, and aliquoted every other day on days 1-11. AlamarBlue® solution ( 1/10 total volume) was added to cells and incubated for 2 hours. Aliquoted plates were read in a SpectraMax M3 plate reader (Molecular Devices, Sunnyvale, Calif.). Relative cell survival was calculated as percentage of fluorescence relative to scrambled control. The CellTiter-Glo® Luminescent cell viability assay (Promega, Madison Wis.) was used to assess the dose-response of inhibitors. […] Luminescent measurement was performed using the 2104 Envision® Multilabel Reader (PerkinElmer Inc.).

In test [4] the test system is MYD88^WT cell lines or healthy donor B-cells. Kind of test: Apoptosis by propidium iodide and Annexin V staining. It is filed as cell-based. Conditions: data not shown. On the procedure:
(§3) Apoptosis analysis was performed using Annexin V/Propidium iodide staining with the Apoptosis Detection Kit I (BD Pharmingen, San Jose Calif.). Cells (1×10^6/well) were treated in 24 well plates for 18 hours with inhibitors or corresponding controls. A minimum of 10,000 events were acquired using a BD™ FACSCanto II flow cytometer, and analyzed with BD FACS DIVA Software. For WM patient cells, BMMC (2×10^6/well) were treated with inhibitors, and CD19-APC-cy7 antibody (BD Pharmingen) was used with Annexin V antibody to analyze WM cell apoptosis. AlamarBlue® cell viability assay (Life Technologies, Carlsbad Calif.) was used to assess cell death following inducible HCK knockdown. For these experiments, transduced cells (1×10^5/ml) were cultured with tetracycline, and aliquoted every other day on days 1-11. AlamarBlue® solution ( 1/10 total volume) was added to cells and incubated for 2 hours. Aliquoted plates were read in a SpectraMax M3 plate reader (Molecular Devices, Sunnyvale, Calif.). Relative cell survival was calculated as percentage of fluorescence relative to scrambled control. The CellTiter-Glo® Luminescent cell viability assay (Promega, Madison Wis.) was used to assess the dose-response of inhibitors. Cells were seeded into 384 well plates with the EL406 Combination Washer Dispenser (BioTek Instruments, Inc.) and inhibitors injected into the cells culture media with the JANUS Automated Workstation (PerkinElmer Inc., Waltham Mass.). Cells were treated with serial diluted inhibitors […] for 72 hours at 37° C. Luminescent measurement was performed using the 2104 Envision® Multilabel Reader (PerkinElmer Inc.).
as §1

Test [5] concerns mutated MYD88 cell lines and primary WM cells. The description is as above. It is filed as cell-based. The conditions noted are these: 0.5 μM, 18 hours. On the procedure:
as §3, §1

The target of test [6] is T2, LYN. Briefly: KiNativ profiling in WM cell lines. Format: binding. More on the design: endogenous in cells; host or cells: BCWM.1 and MWCL-1 WM cell lines. The conditions noted are these: for inhibition at 1 µM: read-out: KiNativ profiling, LYN inhibition (labeling site Lys1); for KiNativ profiling, LYN inhibition (labeling site Lys1): 1 μM.
The next test addresses T4, SRC (Homo sapiens, UniProt P12931).
T4 construct: endogenous in cells; host or cells: BCWM.1
Briefly: Kinase active-site inhibition assay (ATP-biotin probe, western blot) in BCWM.1 cells. It is filed as binding. The conditions noted are these: BCWM.1 WM cells, pre-treated 1 hour, various concentrations. How it is done:
as §2
In general terms: In western blotting, separated proteins are transferred to a membrane and probed.

A further test has as its system TMD-8 ABC DLBCL cells. Briefly: Cell viability of TMD-8 cells transfected with BTK vectors. It is filed as cell-based. Conditions: FIG. 8B.
The target of a further test is T5, BTK (Homo sapiens, UniProt Q06187).
T5 construct: endogenous in cells; host or cells: BCWM.1 (A4); BCWM.1, MWCL-1, TMD-8 (A7)
Kind of test: Kinase active-site inhibition assay (ATP-biotin probe, western blot) in BCWM.1 cells. Format: binding. Conditions: BCWM.1 WM cells, pre-treated 1 hour, various concentrations. On the procedure:
as §2

The subject of another test is BCWM.1 WM cells. Kind of test: Dose dependent tumor cell survival of BCWM.1 cells transduced with BTK or HCK vectors. It is filed as cell-based.
Description: as §1

Test [7] concerns the target T1, HCK. Conditions: read-out: IC50 kinase activity of HCK; cited from earlier work.

Like-named read-outs stand apart in the source and are kept apart here.

Turning to `CN1CCN([C@H]2CC[C@H](n3cc(-c4ccc(Oc5ccccc5)cc4)c4c(N)ncnc43)CC2)CC1` [A419259], the “KiNativ profiling, FYN, SRC, YES (labeling site Activation Loop)” value in the test on FYN, SRC, YES (BCWM.1 cells) was over 99; in the test with FYN, SRC, YES (MWCL-1 cells), 98.1. The dose-dependent viability result in [1] (72 hours, more pronounced in mutated MYD88 than MYD88 WT cells) is “Decreased dose-dependent viability”. Further, the “blocking of ATP binding to HCK” value on HCK [2] is on record as “blocked ATP binding to HCK in a dose-dependent manner”. At LYN [3], the “blocking of ATP binding to LYN” value is “blocked ATP binding to the SRC family members SRC and LYN”. Moreover, the apoptotic cells in the test on CD5+CD19+ PBMC cells (0.1 μM) was found to be 18.4%; in the test with CD5+CD19+ PBMC cells (0.5 μM), 25.6%; with CD19+ bone marrow cells (0.1 μM), 20.8%; with CD19+ bone marrow cells (0.5 μM) it was 24.6%. Besides, the “change in HCK Tyr411 phosphorylation” value on HCK (pTyr^411) was “reduced HCK Tyr^411 phosphorylation”. Besides, the apoptotic activity entry in test [4] is “little or no apoptotic activity”. Besides, in test [5], the apoptotic changes entry is on record as “Increased apoptotic changes”. The inhibition at 1 µM at LYN [6] (BCWM.1 cells) and on LYN [6] (MWCL-1 cells) was over 99% throughout. In addition, the “blocking of ATP binding to SRC” value on SRC is “blocked ATP binding to the SRC family members SRC and LYN”.
On to `C=CC(=O)N1CCC[C@@H](n2nc(-c3ccc(Oc4ccccc4)cc3)c3c(N)ncnc32)C1` [Ibrutinib], for which the inhibition (as a rule, the percentage by which the read-out fell short of the control) at 1 µM on LYN [6] (BCWM.1 cells) came to 60.5%; on LYN [6] (MWCL-1 cells), 80.6%.
With `C=CC(=O)Nc1cccc(Nc2nc(Nc3ccc(OCCOC)cc3)ncc2F)c1` [CC-292], the “KiNativ profiling, FYN, SRC, YES (labeling site Activation Loop)” value in the test with FYN, SRC, YES (BCWM.1 cells) is given as 10.5; in the test on FYN, SRC, YES (MWCL-1 cells), −0.4. Moreover, the “higher EC50 in viability assay” value in test [1] (mutated MYD88 cell lines except OCI-Ly3, 72 hours) was over 1 log-fold. Also, the “blocking of ATP binding to HCK” value at HCK [2] is on record as “not CC-292 blocked ATP binding to HCK”. Also, the “blocking of ATP binding to LYN” value on LYN [3] is given as “did not block ATP binding to either SRC or LYN”. Also, the “change in HCK Tyr411 phosphorylation” value on HCK (pTyr^411) is “little or no impact on HCK Tyr^411 phosphorylation”. In addition, the apoptotic activity entry in [4] is on record as “little or no apoptotic activity”. The apoptotic changes result in test [5] is “little or no impact on apoptosis”. Also, the results for the “KiNativ profiling, LYN inhibition (labeling site Lys1)” value on LYN [6] (BCWM.1 cells) and on LYN [6] (MWCL-1 cells) were 15.7 and 14.2, respectively. In addition, the “potency for tumor cell killing in BTK^C481S expressing cells versus wild-type BTK or control vector” value in the test on TMD-8 ABC DLBCL cells is reported as “decreased the potency”; in the test with BCWM.1 WM cells (BCWM.1 WM cells, FIG. 8A) it was “reduced potency”. The “blocking of ATP binding to SRC” value at SRC is recorded as “did not block ATP binding to either SRC or LYN”. For the same molecule, the “blocking of ATP binding to BTK” value at BTK is recorded as “blocked ATP binding to BTK”. The “change in tumor cell killing with HCK^T333M or wild-type HCK” value in the test with BCWM.1 WM cells (BCWM.1 transduced to express HCK^T333M or wild-type HCK) is reported as “No substantial change in tumor cell killing”. The IC50 (in general, the midpoint of a concentration-inhibition curve) at HCK [7] is 14.6 µM.
